Patent US9273077B2, “Phosphorus derivatives as kinase inhibitors” (ARIAD Pharmaceuticals, Inc., priority 2008, dated 2016)

Target: T1, ALK (Homo sapiens, UniProt Q9UM73)
T1 construct: Kinases are expressed as either kinase domains or full length constructs fused to glutathione S-transferase (GST) or polyHistidine tagged fusion proteins; made in house; host or cells: E. coli or Baculovirus-High Five (not specified which for ALK)
Assay: inhibitory potency against ALK (kinase inhibition assay)
Assay type: biochemical
Excerpt: More specifically, the compounds described herein are screened for kinase inhibition activity as follows. Kinases suitable for use in the following protocol include, but are not limited to: ALK, Jak2, b-Raf, c-Met, Tie-2, FLT3, Abl, Lck, Lyn, Src, Fyn, Syk, Zap-70, Itk, Tec, Btk, EGFR, ErbB2, Kdr, FLT1, Tek, InsR, and AKT.
Kinases are expressed as either kinase domains or full length constructs fused to glutathione S-transferase (GST) or polyHistidine tagged fusion proteins in either E. coli or Baculovirus-High Five expression systems. They are purified to near homogeneity by affinity chromatography as previously described (Lehr et al., 1996; Gish et al., 1995). In some instances, kinases are co-expressed or mixed with purified or partially purified regulatory polypeptides prior to measurement of activity.
Kinase activity and inhibition can be measured by established protocols (see e.g., Braunwalder et al., 1996). In such cases, the transfer of ^33PO4 from ATP to the synthetic substrates poly(Glu, Tyr) 4:1 or poly(Arg, Ser) 3:1 attached to the bioactive surface of microtiter plates is taken as a measure of enzyme activity. After an incubation period, the amount of phosphate transferred is measured by first washing the plate with 0.5% phosphoric acid, adding liquid scintillant, and then counting in a liquid scintillation detector. The IC50 is determined by the concentration of compound that causes a 50% reduction in the amount of ^33P incorporated onto the substrate bound to the plate.
For example, in one method, compounds can be tested for their ability to inhibit kinase activity of baculovirus-expressed ALK using a modification of the ELISA protocol reported for trkA in Angeles, T. S. et al., Anal. Biochem. 1996, 236, 49-55, which is incorporated herein by reference. Phosphorylation of the substrate, phopholipase C-gamma (PLC- ? ) generated as a fusion protein with glutathione-S-transferase (GST) as reported in rotin, D. et al., EMBO J. 1992, 11, 559-567, which is incorporated by reference, can be detected with europium-labeled anti-phosphotyrosine antibody and measured by time-resolved fluorescence (TRF). […] Detection of the phosphorylated product can be performed by adding 100 ? L/well of Eu-N1 labeled PT66 antibody (Perkim Elmer #AD0041). Incubation at 37 degrees C. then proceeds for one hour, followed by addition of 100 ? L enhancement solution (for example Wallac #1244-105). The plate is gently agitated and after thirty minutes, the fluorescence of the resulting solution can be measured (for example using EnVision 2100 (or 2102) multilabel plate reader from Perkin Elmer).
Data analysis can then be performed. IC50 values can be calculated by plotting percent inhibition versus log10 of concentration of compound.
The inhibition of ALK tyrosine kinase activity can also be measured using the recombinant kinase domain of the ALK in analogy to VEDG-R kinase assay described in J. Wood et al., Cancer Res 2000, 60, 2178-2189. In vitro enzyme assays using GST-ALK protein tyrosine kinase can be performed in 96-well plate as a filter binding assay in 20 mMTris.HCl, pH 7.5, 3 mM MgCl2, 10 mM MnCl2, […], 0.1 ? Ci/assay (=30 ? L) [ ? -^33P]-ATP, 2 ? M ATP, 3 ? g/mL poly (Glu, tyr 4:1) Poly-EY (sigma P-0275), 1% DMSO, 25 ng ALK enzyme. Assays can be incubated for 10 min, at ambient temperature. Reactions can be terminated by adding 50 ? L of 125 mM EDTA, and the reaction mixture can be transferred onto a MAIP Multiscreen plate (Millipore, Bedford, Mass.) previously wet with methanol, and rehydrated for 5 minutes with water. Following washing (0.5% H3PO4), plates can be counted in a liquid scintillation counter. IC50 values are calculated by linear regression analysis of the percentage inhibition.

T1 sequence (Q9UM73 19-1620): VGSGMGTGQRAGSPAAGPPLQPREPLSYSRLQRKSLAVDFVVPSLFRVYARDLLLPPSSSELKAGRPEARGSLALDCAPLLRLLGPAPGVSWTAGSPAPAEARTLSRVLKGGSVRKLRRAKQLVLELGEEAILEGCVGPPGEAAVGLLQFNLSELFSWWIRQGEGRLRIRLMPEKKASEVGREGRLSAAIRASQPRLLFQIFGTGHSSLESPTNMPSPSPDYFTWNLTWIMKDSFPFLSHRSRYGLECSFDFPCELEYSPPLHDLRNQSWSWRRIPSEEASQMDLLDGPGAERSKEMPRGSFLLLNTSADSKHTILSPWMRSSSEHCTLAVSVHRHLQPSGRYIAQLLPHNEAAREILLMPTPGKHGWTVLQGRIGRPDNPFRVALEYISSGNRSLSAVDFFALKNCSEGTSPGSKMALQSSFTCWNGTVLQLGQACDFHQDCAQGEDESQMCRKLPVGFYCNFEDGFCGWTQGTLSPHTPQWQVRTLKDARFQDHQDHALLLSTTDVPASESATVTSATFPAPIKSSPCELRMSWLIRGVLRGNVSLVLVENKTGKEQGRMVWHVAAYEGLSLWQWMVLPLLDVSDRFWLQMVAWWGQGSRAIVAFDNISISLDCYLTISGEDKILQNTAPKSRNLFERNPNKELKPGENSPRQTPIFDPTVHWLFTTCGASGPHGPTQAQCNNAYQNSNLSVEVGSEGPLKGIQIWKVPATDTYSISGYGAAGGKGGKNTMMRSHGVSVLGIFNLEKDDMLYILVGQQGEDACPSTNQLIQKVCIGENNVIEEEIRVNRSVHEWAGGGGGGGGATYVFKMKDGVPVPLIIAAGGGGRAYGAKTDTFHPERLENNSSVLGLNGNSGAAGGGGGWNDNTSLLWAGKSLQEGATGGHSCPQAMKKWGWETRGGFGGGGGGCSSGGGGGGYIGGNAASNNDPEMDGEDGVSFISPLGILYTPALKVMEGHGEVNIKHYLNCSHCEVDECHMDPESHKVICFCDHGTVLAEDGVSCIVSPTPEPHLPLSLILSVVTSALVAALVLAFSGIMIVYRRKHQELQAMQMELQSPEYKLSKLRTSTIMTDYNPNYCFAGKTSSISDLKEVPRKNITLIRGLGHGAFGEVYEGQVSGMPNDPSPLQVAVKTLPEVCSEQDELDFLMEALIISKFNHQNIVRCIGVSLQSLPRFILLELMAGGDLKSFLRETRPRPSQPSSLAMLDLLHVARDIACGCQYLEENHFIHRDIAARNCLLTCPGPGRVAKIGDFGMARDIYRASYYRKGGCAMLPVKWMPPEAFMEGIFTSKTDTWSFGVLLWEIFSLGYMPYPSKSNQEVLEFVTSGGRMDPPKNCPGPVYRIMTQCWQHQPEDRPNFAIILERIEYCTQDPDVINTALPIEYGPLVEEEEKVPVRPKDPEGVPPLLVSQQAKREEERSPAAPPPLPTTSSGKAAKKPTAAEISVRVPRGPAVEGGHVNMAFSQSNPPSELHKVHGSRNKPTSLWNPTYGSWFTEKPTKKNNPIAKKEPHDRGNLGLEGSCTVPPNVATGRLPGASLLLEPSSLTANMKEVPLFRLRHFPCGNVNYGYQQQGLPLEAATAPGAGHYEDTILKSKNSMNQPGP

| IC50 | SMILES |
| --- | --- |
| 2 to 10 nM | COc1cc(P(C)(C)=O)ccc1Nc1ncc(C)c(Nc2ccccc2S(=O)(=O)C(C)C)n1 [Example 21, N^2-[4-(Dimethylphosphoryl)-2-methoxyphenyl]-5-methyl-N^4-[2-(propan-2-ylsulfonyl)phenyl]pyrimidine-2,4-diamine] |
| 2 to 10 nM | COc1cc(P(C)(C)=O)ccc1Nc1ncc(C(F)(F)F)c(Nc2ccccc2S(=O)(=O)C(C)C)n1 [Example 16, N^2-[4-(dimethylphosphoryl)-2-methoxyphenyl]-N^4-[2-(propan-2-ylsulfonyl)phenyl]-5-(trifluoromethyl)pyrimidine-2,4-diamine] |
| > 10 nM | COc1cc(P(C)(C)=O)ccc1Nc1ncc(N)c(Nc2ccccc2S(=O)(=O)C(C)C)n1 [Example 28, N^2-[4-(dimethylphosphoryl)-2-methoxyphenyl]-N^4-[2-(propan-2-ylsulfonyl)phenyl]pyrimidine-2,4,5-triamine] |
| > 10 nM | COc1cc(P(C)(C)=O)ccc1Nc1nccc(Nc2ccccc2S(=O)(=O)C(C)C)n1 [Example 20, N^2-[4-(dimethylphosphoryl)-2-methoxyphenyl]-N^4-[2-(propan-2-ylsulfonyl)phenyl]pyrimidine-2,4-diamine] |
| < 2 nM | CCc1cc(P(C)(C)=O)ccc1Nc1ncc(Cl)c(Nc2ccccc2S(=O)(=O)C(C)C)n1 [Example 24, 5-Chloro-N^2-[4-(dimethylphosphoryl)-2-ethylphenyl]-N^4-[2-(propan-2-ylsulfonyl)phenyl]pyrimidine-2,4-diamine] |
| 2 to 10 nM | COc1ccc(P(C)(C)=O)cc1Nc1ncc(Cl)c(Nc2ccccc2S(=O)(=O)C(C)C)n1 [Example 22, 5-Chloro-N^2-[5-(dimethylphosphoryl)-2-methoxyphenyl]-N^4-[2-(propan-2-ylsulfonyl)phenyl]pyrimidine-2,4-diamine] |
| 2 to 10 nM | CC(C)S(=O)(=O)c1ccccc1Nc1nc(Nc2ccc(P(C)(C)=O)cc2)ncc1Cl [Example 18, 5-chloro-N^2-[4-(dimethylphosphoryl)phenyl]-N^4-[2-(propan-2-ylsulfonyl)phenyl]pyrimidine-2,4-diamine] |
| < 2 nM | COc1cc(P(C)(C)=O)ccc1Nc1ncc(Cl)c(Nc2ccccc2S(=O)(=O)C(C)C)n1 [Example 17, 5-chloro-N-[4-(dimethylphosphoryl)-2-methoxyphenyl]-N^4-[2-(propan-2-ylsulfonyl)phenyl]pyrimidine-2,4-diamine] |
| > 10 nM | COc1nc(P(C)(C)=O)cnc1Nc1ncc(Cl)c(Nc2ccccc2S(=O)(=O)C(C)C)n1 [Example 33, 5-chloro-N^2-[5-(dimethylphosphoryl)-3-methoxypyrazin-2-yl]-N^4-[2-(propan-2-ylsulfonyl)phenyl]pyrimidine-2,4-diamine] |
| < 2 nM | COc1cc(P(C)(C)=O)ccc1Nc1nc(Nc2ccccc2S(=O)(=O)C(C)C)c2cc[nH]c2n1 [Example 31, N^2-[4-(dimethylphosphoryl)-2-methoxyphenyl]-N^4-[2-(propan-2-ylsulfonyl)phenyl]-7H-pyrrolo[2,3-d]pyrimidine-2,4-diamine] |
| < 2 nM | COc1nc(P(C)(C)=O)ccc1Nc1ncc(Cl)c(Nc2ccccc2S(=O)(=O)C(C)C)n1 [Example 32, 5-chloro-N^2-[6-(dimethylphosphoryl)-2-methoxypyridin-3-yl]-N^4-[2-(propan-2-ylsulfonyl)phenyl]pyrimidine-2,4-diamine] |
| < 2 nM | Cc1cc(P(C)(C)=O)ccc1Nc1ncc(Cl)c(Nc2ccccc2S(=O)(=O)C(C)C)n1 [Example 23, 5-Chloro-N^2-[4-(dimethylphosphoryl)-2-methylphenyl]-N-[2-(propan-2-ylsulfonyl)phenyl]pyrimidine-2,4-diamine] |
| 2 to 10 nM | CC(C)S(=O)(=O)c1ccccc1Nc1nc(Nc2ccc(P(C)(C)=O)cc2F)ncc1Cl [Example 27, 5-Chloro-N^2-[4-(dimethylphosphoryl)-2-fluorophenyl]-N^4-[2-(propan-2-ylsulfonyl)phenyl]pyrimidine-2,4-diamine] |

More lines, now with the values behind:

| SMILES | IC50 |
| --- | --- |
| CP(C)(=O)c1ccc(Nc2ncc(C(F)(F)F)c(NCCc3ccc(S(N)(=O)=O)cc3)n2)cc1 [Example 5, 4-(2-{[2-{[4-(dimethylphosphoryl)phenyl]amino}-5-(trifluoromethyl)pyrimidin-4-yl]amino}ethyl)benzenesulfonamide] | > 10 nM |
| CP(C)(=O)c1ccc(Nc2ncc(C(F)(F)F)c(NN3CCOCC3)n2)cc1 [Example 8, N^2-[4-(dimethylphosphoryl)phenyl]-N^4-(morpholin-4-yl)-5-(trifluoromethyl)pyrimidine-2,4-diamine] | > 10 nM |
| CP(C)(=O)c1ccc(Nc2ncc(C(F)(F)F)c(NN3CC4CCCC4C3)n2)cc1 (stereo not shown) [Example 7, N^2-[4-(dimethylphosphoryl)phenyl]-N^4-(hexahydrocyclopenta[c]pyrrol-2(1H)-yl)-5-(trifluoromethyl)pyrimidine-2,4-diamine] | > 10 nM |
| Cc1cc(C)cc(Nc2nc(Nc3ccc(P(C)(C)=O)cc3)ncc2C(F)(F)F)c1 [Example 14, N^4-(3,5-dimethylphenyl)-N^2-[4-(dimethylphosphoryl)phenyl]-5(trifluoromethyl)pyrimidine-2,4-diamine] | > 10 nM |
| CP(C)(=O)c1ccc(Nc2ncc(C(F)(F)F)c(NC34CC5CC(CC(C5)C3)C4)n2)cc1 [Example 2, N^2-[4-(dimethylphosphoryl)phenyl]-N′-(tricyclo[3.3.1.1^3,7]dec-1-yl)-5-(trifluoromethyl)pyrimidine-2,4-diamine] | > 10 nM |
| COc1cc(P(C)(C)=O)ccc1Nc1ncc(Cl)c(Nc2ccccc2)n1 [Example 15, 5-chloro-N^2-[4-(dimethylphosphoryl)-2-methoxyphenyl]-N^4-phenylpyrimidine-2,4-diamine] | > 10 nM |
| CN1CCN(Nc2nc(Nc3ccc(P(C)(C)=O)cc3)ncc2C(F)(F)F)CC1 [Example 11, N^2-[4(dimethylphosphoryl)phenyl]-N^4-(4-methylpiperazin-1-yl)-5-(trifluoromethyl) pyrimidine-2,4-diamine] | > 10 nM |
| COc1cc(N2CCC(N3CCN(C)CC3)CC2)ccc1Nc1ncc(Cl)c(Nc2ccc(P(C)(C)=O)cc2)n1 [Example 19, 5-chloro-N^4-[4-(dimethylphosphoryl)phenyl]-N^2-{2-methoxy-4-[4-(4-methylpiperazin-1-yl)piperidin-1-yl]phenyl}pyrimidine-2,4-diamine] | > 10 nM |
| CN1CCN(c2ccc(CNc3nc(Nc4ccc(P(C)(C)=O)cc4)ncc3C(F)(F)F)cc2)CC1 [Example 13, N^2-[4-(dimethylphosphoryl)phenyl]-N^4-[4-(4-methylpiperazin-1-yl)benzyl]-5-(trifluoromethyl)pyrimidine-2,4-diamine] | > 10 nM |
| COc1cc(P(C)(C)=O)ccc1Nc1ncc2[nH]c(=O)n(-c3ccccc3S(=O)(=O)C(C)C)c2n1 [Example 29, 2-{[4-(dimethylphosphoryl)-2-methoxyphenyl]amino}-9-[2-(propan-2-ylsulfonyl)phenyl]-7,9-dihydro-8H-purin-8-one] | > 10 nM |
| CP(C)(=O)c1ccc(Nc2ncc(C(F)(F)F)c(NC3CCCO3)n2)cc1 (stereo not shown) [Example 6, N^2-[4-(dimethylphosphoryl)phenyl]-N^4-(tetrahydrofuran-2-yl)-5-(trifluoromethyl)pyrimidine-2,4-diamine] | > 10 nM |
| COc1cc(P2(=O)CCNCC2)ccc1Nc1nccc(Nc2ccccc2S(=O)(=O)C(C)C)n1 [Example 30, N^2-[2-methoxy-4-(4-oxido-1,4-azaphosphinan-4-yl)phenyl]-N^4-[2-(propan-2-ylsulfonyl)phenyl]pyrimidine-2,4-diamine] | 2 to 10 nM |
